Test results reported in ChEMBL document CHEMBL1201862, “PubChem BioAssay data set” (2004).
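Assay format: 96-well plates, 48-hour exposure. GI50 = concentration required for 50% inhibition of growth.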 Active and inactive are the calls of the source. No stated cut-off is given here; in the data, active = GI50 up to about 1.1 µM and inactive = higher.

Columns and labels:
Assay in all cases: inhibition of tumour cell growth, NCI panel, 48 h
CCRF-CEM = system: CCRF-CEM
UO-31 = system: UO-31
SNB-75 = system: SNB-75
HCT-15 = system: HCT-15
SNB-19 = system: SNB-19
LOX IMVI = system: LOX IMVI
HCT-116 = system: HCT-116
OVCAR-4 = system: OVCAR-4
KM12 = system: KM12
M14 = system: M14
KM-20L2 = system: KM-20L2
SK-MEL-2 = system: SK-MEL-2
TK-10 = system: TK-10
EKVX = system: EKVX
Malme-3M = system: Malme-3M
CAKI-1 = system: CAKI-1
NCI-H522 = system: NCI-H522

| Compound | GI50 (CCRF-CEM) | GI50 (UO-31) | GI50 (SNB-75) | GI50 (HCT-15) [µM] | GI50 (SNB-19) | GI50 (LOX IMVI) | GI50 (HCT-116) | GI50 (OVCAR-4) | GI50 (KM12) | GI50 (M14) | GI50 (KM-20L2) | GI50 (SK-MEL-2) | GI50 (TK-10) | GI50 (EKVX) | GI50 (Malme-3M) | GI50 (CAKI-1) | GI50 (NCI-H522) |
| --- | --- | --- | --- | --- | --- | --- | --- | --- | --- | --- | --- | --- | --- | --- | --- | --- | --- |
| COc1cc(C(C)c2cc3c(cc2OCCCCOc2cc4c(cc2C(C)c2cc(OC)c(OC)c(OC)c2)OCO4)OCO3)cc(OC)c1OC (stereo not drawn) | 48.3 µM (inactive) | 46.3 µM (inactive) | 24.8 µM (inactive) | 34.8 | > 100 µM (inactive) | > 100 µM (inactive) | 31.7 µM (inactive) | 92.3 µM (inactive) | 33 µM (inactive) | 24.5 µM (inactive) | > 100 µM (inactive) | 42.3 µM (inactive) | > 100 µM (inactive) | 40.5 µM (inactive) | 35.6 µM (inactive) | > 100 µM (inactive) | – |
| CC1CC(c2ccc([N+](=O)[O-])cc2)=Nc2ccccc2S1 (stereo not drawn) | 4.32 µM (inactive) | 11.8 µM (inactive) | 37.6 µM (inactive) | 15.4 | 16.7 µM (inactive) | 6.89 µM (inactive) | 1.75 µM (inactive) | 16.7 µM (inactive) | 12.6 µM (inactive) | 14.2 µM (inactive) | 18.4 µM (inactive) | – | 28.2 µM (inactive) | 23.6 µM (inactive) | 35.9 µM (inactive) | 24.4 µM (inactive) | 20.3 µM (inactive) |
| CCOC(=O)c1cnc2oc(-c3ccc(OC)cc3)nn2c1=O | – | > 100 µM (inactive) | 45.3 µM (inactive) | > 100 | > 100 µM (inactive) | – | > 100 µM (inactive) | > 100 µM (inactive) | > 100 µM (inactive) | – | > 100 µM (inactive) | > 100 µM (inactive) | > 100 µM (inactive) | > 100 µM (inactive) | > 100 µM (inactive) | – | 79.1 µM (inactive) |
| S=c1nc2c(c[nH]1)C1c3ccccc3C2c2ccccc21 | 55 µM (inactive) | 39.5 µM (inactive) | 15.9 µM (inactive) | 80.2 | 82.4 µM (inactive) | > 100 µM (inactive) | > 100 µM (inactive) | 39.2 µM (inactive) | 44.1 µM (inactive) | 79.8 µM (inactive) | > 100 µM (inactive) | 57.7 µM (inactive) | > 100 µM (inactive) | 38.5 µM (inactive) | > 100 µM (inactive) | – | 46 µM (inactive) |
| CCCCCCCCCCCC(=O)OCC1OC(n2cc(F)c(=O)[nH]c2=O)C(N)C(O)C1O (stereo not drawn) | 31.2 µM (inactive) | > 100 µM (inactive) | > 100 µM (inactive) | > 100 | 57.9 µM (inactive) | – | 88.1 µM (inactive) | > 100 µM (inactive) | 77.4 µM (inactive) | > 100 µM (inactive) | 91.4 µM (inactive) | > 100 µM (inactive) | – | > 100 µM (inactive) | > 100 µM (inactive) | 49 µM (inactive) | 75.3 µM (inactive) |
| CC1=C(C(=O)Nc2ccc([N+](=O)[O-])cc2)C(c2cccc([N+](=O)[O-])c2)C(C(=O)Nc2ccc([N+](=O)[O-])cc2)=C(C)N1 | 12.6 µM (inactive) | > 100 µM (inactive) | 23.7 µM (inactive) | 61.7 | 52.7 µM (inactive) | 11.1 µM (inactive) | 5.97 µM (inactive) | 48.6 µM (inactive) | 12.1 µM (inactive) | 24.3 µM (inactive) | 16.6 µM (inactive) | 33.1 µM (inactive) | 37.5 µM (inactive) | 48.2 µM (inactive) | 25.2 µM (inactive) | – | 20.5 µM (inactive) |
| COC(=O)C1=C(C)N(NC(N)=O)C2(N)N(NC(N)=O)C(C)=C(C(=O)OC)C12C#N (stereo not drawn) | > 100 µM (inactive) | > 100 µM (inactive) | – | > 100 | > 100 µM (inactive) | > 100 µM (inactive) | > 100 µM (inactive) | > 100 µM (inactive) | > 100 µM (inactive) | > 100 µM (inactive) | > 100 µM (inactive) | > 100 µM (inactive) | > 100 µM (inactive) | > 100 µM (inactive) | > 100 µM (inactive) | > 100 µM (inactive) | > 100 µM (inactive) |
| NC(=O)N/N=C(\C(=O)C(=O)Nc1ccc(Cl)c(C(F)(F)F)c1)c1nc2ccc(C(=O)c3ccccc3)cc2nc1O | 55.8 µM (inactive) | 31.6 µM (inactive) | – | > 100 | > 100 µM (inactive) | – | > 100 µM (inactive) | 53.8 µM (inactive) | 77.6 µM (inactive) | > 100 µM (inactive) | > 100 µM (inactive) | > 100 µM (inactive) | > 100 µM (inactive) | 27.2 µM (inactive) | > 100 µM (inactive) | 27.5 µM (inactive) | 46.6 µM (inactive) |
| COC(=O)C1=C(c2ccc(OC)c(OC)c2)OC(c2cc(OC)c(OC)c(OC)c2)C1 (stereo not drawn) | > 100 µM (inactive) | > 100 µM (inactive) | 7.31 µM (inactive) | – | – | 99.5 µM (inactive) | – | 16.1 µM (inactive) | 33.1 µM (inactive) | 65.6 µM (inactive) | > 100 µM (inactive) | 20.1 µM (inactive) | 39.2 µM (inactive) | > 100 µM (inactive) | 42.4 µM (inactive) | 60.3 µM (inactive) | – |
| O=C1C2Cc3ccccc3CN2C(=O)N1CN1CCN(CN2C(=O)C3Cc4ccccc4CN3C2=O)CC1 (stereo not drawn) | > 100 µM (inactive) | > 100 µM (inactive) | > 100 µM (inactive) | > 100 | > 100 µM (inactive) | > 100 µM (inactive) | – | – | > 100 µM (inactive) | – | > 100 µM (inactive) | > 100 µM (inactive) | > 100 µM (inactive) | > 100 µM (inactive) | > 100 µM (inactive) | > 100 µM (inactive) | > 100 µM (inactive) |
| O=C(O)CP(=S)(S)c1ccccc1 (stereo not drawn) | > 100 µM (inactive) | > 100 µM (inactive) | – | – | > 100 µM (inactive) | > 100 µM (inactive) | – | > 100 µM (inactive) | > 100 µM (inactive) | > 100 µM (inactive) | > 10 µM (inactive) | > 100 µM (inactive) | > 100 µM (inactive) | > 100 µM (inactive) | > 100 µM (inactive) | > 100 µM (inactive) | > 100 µM (inactive) |
| O=c1ccn(C2(CO)C=C(CO)C(O)C2O)c(=O)[nH]1 (stereo not drawn) | – | > 25.7 µM (inactive) | > 25.7 µM (inactive) | > 25.7 | > 25.7 µM (inactive) | – | > 25.7 µM (inactive) | > 25.7 µM (inactive) | > 25.7 µM (inactive) | > 25.7 µM (inactive) | > 25.7 µM (inactive) | > 25.7 µM (inactive) | > 25.7 µM (inactive) | > 25.7 µM (inactive) | > 25.7 µM (inactive) | > 25.7 µM (inactive) | > 25.7 µM (inactive) |
| Oc1cc(-c2c[nH]c3ccccc23)nc2cc3c(cc12)OCO3 | > 100 µM (inactive) | > 100 µM (inactive) | 21.6 µM (inactive) | > 100 | > 100 µM (inactive) | > 100 µM (inactive) | > 100 µM (inactive) | 3.79 µM (inactive) | – | > 100 µM (inactive) | > 100 µM (inactive) | > 100 µM (inactive) | > 100 µM (inactive) | > 100 µM (inactive) | 23.6 µM (inactive) | – | – |
